Experimental data as given in paper PMC8776995 (Frontiers in Chemistry, 2022).
Where “and” joins values, the source holds several entries; their conditions need not be identical. Equal values may be shown once. Read-outs that look alike come from different tables or passages of the source.

Key:
wild-type EGFR = wild-type EGFR (Homo sapiens, UniProt P00533); experiment: EGFR kinase assay (ELISA); conditions: for IC50: ELISA, 3 μmol/L ATP; for A450: raw ELISA absorbance
H460 cells = experiment: CCK-8 antiproliferation assay, H460; conditions: for Inhibitory efficacy: H460 cells; for IC50: NCI-H460, 48 h, read-out: IC50 (μM) H460, CCK-8, 48 h, average ± SD of three independent experiments
A549 cells = experiment: CCK-8 antiproliferation assay, A549; conditions: for Inhibitory efficacy: A549 cells; for Inhibitory efficacy / inhibition at 1 µM / inhibition at 2 µM / inhibition at 4 µM / inhibition at 8 µM / inhibition at 16 µM: given as fraction, Repeat 1-3; for IC50 / inhibition at 1 µM / inhibition at 2 µM / inhibition at 4 µM / inhibition at 8 µM / inhibition at 16 µM: Homo sapiens; for IC50: A549, 48 h, read-out: IC50 (μM) A549, CCK-8, 48 h, average ± SD of three independent experiments; for inhibition at 1 µM / inhibition at 2 µM / inhibition at 4 µM / inhibition at 8 µM / inhibition at 16 µM: A549, read-out: Inhibitory efficacy, A549 cells
Protocol: The compounds were dissolved in DMSO to make a 20 μM stock solution and diluted to the concentration of working solutions with complete growth medium before administration.
Cells were seeded in 96-well plates: 3,000–5,000 cells/well in 100 ul. One day after seeding, the test compounds at concentration between 1.0 and 16.0 μ M or 0.1% DMSO (as control) were added to cells in triplicate. 48 h later, CCK-8 was added and incubated the plate for 1–4 h in the incubator. The absorbance at 450 nm were measured using a microplate reader (Bio-Tek).

PC-9 cells = experiment: CCK-8 antiproliferation assay, PC-9; conditions: for IC50: PC-9, 48 h, read-out: IC50 (μM) PC-9; for Inhibitory efficacy: single repeats (Repeat 1-3), given as fraction
H1975 cells = experiment: CCK-8 antiproliferation assay, H1975; conditions: for Inhibitory efficacy: H1975 cells; for Inhibitory efficacy / inhibition at 1 µM / inhibition at 2 µM / inhibition at 4 µM / inhibition at 8 µM / inhibition at 16 µM: given as fraction, Repeat 1-3; for IC50 / inhibition at 1 µM / inhibition at 2 µM / inhibition at 4 µM / inhibition at 8 µM / inhibition at 16 µM: Homo sapiens; for IC50: NCI-H1975, 48 h, read-out: IC50 (μM) H1975, CCK-8, 48 h, average ± SD of three independent experiments; for inhibition at 1 µM / inhibition at 2 µM / inhibition at 4 µM / inhibition at 8 µM / inhibition at 16 µM: NCI-H1975, read-out: Inhibitory efficacy, H1975 cells
[1] = concentration 0.03 nM, one value per replicate column
[2] = concentration 0.03 nM, one value per replicate column, 3e-05 µM
[3] = concentration 0.3 nM, one value per replicate column
[4] = concentration 0.3 nM, one value per replicate column, 0.0003 µM
[5] = concentration 3 nM, one value per replicate column
[6] = concentration 3 nM, one value per replicate column, 0.003 µM
[7] = concentration 30 nM, one value per replicate column
[8] = concentration 30 nM, one value per replicate column, 0.03 µM
[9] = concentration 300 nM, one value per replicate column
[10] = concentration 300 nM, one value per replicate column, 0.3 µM
[11] = concentration 3000 nM, one value per replicate column
[12] = concentration 3000 nM, one value per replicate column, 3 µM
[13] = concentration 30000 nM, one value per replicate column
[14] = concentration 30000 nM, one value per replicate column, 30 µM
[15] = 2uM, given as fraction, Repeat 1-3
[16] = 4uM, given as fraction, Repeat 1-3
[17] = 8uM, given as fraction, Repeat 1-3
[18] = 16uM, given as fraction, Repeat 1-3
[19] = Homo sapiens, NCI-H460, read-out: Inhibitory efficacy, H460 cells, 2uM, given as fraction, Repeat 1-3
[20] = Homo sapiens, NCI-H460, read-out: Inhibitory efficacy, H460 cells, 4uM, given as fraction, Repeat 1-3
[21] = Homo sapiens, NCI-H460, read-out: Inhibitory efficacy, H460 cells, 8uM, given as fraction, Repeat 1-3
[22] = Homo sapiens, NCI-H460, read-out: Inhibitory efficacy, H460 cells, 16uM, given as fraction, Repeat 1-3

Sequence of wild-type EGFR (P00533 25-1210): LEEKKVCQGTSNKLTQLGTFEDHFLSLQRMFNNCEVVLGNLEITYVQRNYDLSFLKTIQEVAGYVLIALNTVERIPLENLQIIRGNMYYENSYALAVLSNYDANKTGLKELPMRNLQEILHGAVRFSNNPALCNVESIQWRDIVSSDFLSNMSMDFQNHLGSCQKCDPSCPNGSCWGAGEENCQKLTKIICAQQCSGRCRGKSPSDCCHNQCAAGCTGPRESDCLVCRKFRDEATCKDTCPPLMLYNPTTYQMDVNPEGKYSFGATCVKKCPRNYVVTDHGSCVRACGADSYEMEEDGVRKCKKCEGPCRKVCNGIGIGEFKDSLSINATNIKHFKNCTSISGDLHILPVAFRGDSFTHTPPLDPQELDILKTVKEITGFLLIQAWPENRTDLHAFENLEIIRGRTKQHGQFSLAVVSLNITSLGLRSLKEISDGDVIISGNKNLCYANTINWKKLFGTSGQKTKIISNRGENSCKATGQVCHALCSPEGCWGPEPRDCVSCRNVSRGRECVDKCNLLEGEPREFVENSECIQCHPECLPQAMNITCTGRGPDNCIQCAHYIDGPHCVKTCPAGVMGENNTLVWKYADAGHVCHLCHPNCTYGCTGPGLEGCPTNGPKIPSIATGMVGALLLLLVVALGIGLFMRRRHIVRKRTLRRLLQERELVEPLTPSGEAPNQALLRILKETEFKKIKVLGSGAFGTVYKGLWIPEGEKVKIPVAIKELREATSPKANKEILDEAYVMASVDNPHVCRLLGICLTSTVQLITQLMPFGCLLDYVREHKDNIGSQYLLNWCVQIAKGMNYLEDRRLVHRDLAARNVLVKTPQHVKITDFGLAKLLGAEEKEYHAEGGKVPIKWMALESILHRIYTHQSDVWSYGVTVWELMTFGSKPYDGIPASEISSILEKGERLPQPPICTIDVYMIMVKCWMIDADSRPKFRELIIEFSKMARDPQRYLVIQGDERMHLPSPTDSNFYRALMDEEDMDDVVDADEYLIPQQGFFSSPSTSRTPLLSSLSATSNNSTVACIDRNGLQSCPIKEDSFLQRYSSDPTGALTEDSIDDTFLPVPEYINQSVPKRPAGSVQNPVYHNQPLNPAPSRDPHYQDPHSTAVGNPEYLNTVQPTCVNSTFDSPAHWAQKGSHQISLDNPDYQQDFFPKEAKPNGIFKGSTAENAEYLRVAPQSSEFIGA

## COCCOc1cc2ncnc(Nc3cccc(-c4cn(-c5ccc(OC)cc5OC)nn4)c3)c2cc1OCCOC [e17, [6,7-Bis-(2-methoxy-ethoxy)-quinazolin-4-yl]-{3-[1-(2,4-dimethoxy-phenyl)-1H-[1,2,3]triazol-4-yl]-phenyl}-amine]
other
  melting point: 85 to 88 °C
wild-type EGFR; IC50 (μM) EGFR
  IC50: 15.5 µM
wild-type EGFR; [1]
  inhibition at 30 pM: 13.7%
wild-type EGFR; [2]
  Inhibition: 9.36
wild-type EGFR; [3]
  inhibition at 0.0003 µM: 14.2%
wild-type EGFR; [4]
  Inhibition: 12.4795
wild-type EGFR; [5]
  inhibition at 0.003 µM: 14.4%
wild-type EGFR; [6]
  Inhibition: 19.0476
wild-type EGFR; [7]
  inhibition at 0.03 µM: 18.2%
wild-type EGFR; [8]
  Inhibition: 26.7652
wild-type EGFR; [9]
  inhibition at 0.3 µM: 32.9%
wild-type EGFR; [10]
  Inhibition: 32.1839
wild-type EGFR; [11]
  inhibition at 3 µM: 34.7%
wild-type EGFR; [12]
  Inhibition: 34.8112
wild-type EGFR; [13]
  inhibition at 30 µM: 60.1%
wild-type EGFR; [14]
  Inhibition: 58.1281
wild-type EGFR; concentration 0.0001 nM
  A450: 0.831 and 0.824
wild-type EGFR; concentration 0.03 nM
  A450: 0.745 and 0.767
wild-type EGFR; concentration 0.3 nM
  A450: 0.742 and 0.748
wild-type EGFR; concentration 3 nM
  A450: 0.741 and 0.708
wild-type EGFR; concentration 30 nM
  A450: 0.717 and 0.661
wild-type EGFR; concentration 300 nM
  A450: 0.625 and 0.628
wild-type EGFR; concentration 3000 nM
  A450: 0.614 and 0.612
wild-type EGFR; concentration 30000 nM
  A450: 0.455 and 0.47
H460 cells; [15]
  Inhibitory efficacy: 0.3561 and 0.3949
H460 cells; [16]
  Inhibitory efficacy: 0.5495 and 0.6263
H460 cells; [17]
  Inhibitory efficacy: 0.7733 and 0.7776
H460 cells; [18]
  Inhibitory efficacy: 0.8649 and 0.8113
H460 cells; Homo sapiens
  IC50: 3.18 ± 0.11 µM
H460 cells; [19]
  inhibition at 2 µM: 29.5%
H460 cells; [20]
  inhibition at 4 µM: 60.9%
H460 cells; [21]
  inhibition at 8 µM: 77.7%
H460 cells; [22]
  inhibition at 16 µM: 81.3%
A549 cells; 1uM
  Inhibitory efficacy: 0.282 and 0.1573
  inhibition at 1 µM: 15.3%
A549 cells; 2uM
  Inhibitory efficacy: 0.4285 and 0.3755
  inhibition at 2 µM: 40.1%
A549 cells; 4uM
  Inhibitory efficacy: 0.5452 and 0.5691
  inhibition at 4 µM: 55.6%
A549 cells; 8uM
  Inhibitory efficacy: 0.5949 and 0.5372
  inhibition at 8 µM: 58.9%
A549 cells; 16uM
  Inhibitory efficacy: 0.5916 and 0.6049
  inhibition at 16 µM: 65%
A549 cells
  IC50: 4.86 ± 0.6 µM
PC-9 cells; Homo sapiens
  IC50: > 100 µM
H1975 cells; 1uM
  Inhibitory efficacy: 0.195 and 0.1523
  inhibition at 1 µM: 23.1%
H1975 cells; 2uM
  Inhibitory efficacy: 0.402 and 0.2557
  inhibition at 2 µM: 33.3%
H1975 cells; 4uM
  Inhibitory efficacy: 0.3137 and 0.2571
  inhibition at 4 µM: 29%
H1975 cells; 8uM
  Inhibitory efficacy: 0.5 and 0.471
  inhibition at 8 µM: 52.8%
H1975 cells; 16uM
  Inhibitory efficacy: 0.4476 and 0.4006
  inhibition at 16 µM: 47.1%
H1975 cells
  IC50: 18.3 ± 4.45 µM

## COCCOc1cc2ncnc(Nc3cccc(-c4cn(-c5ccc(C)cc5O)nn4)c3)c2cc1OCCOC [e18, 2-(4-{3-[6,7-Bis-(2-methoxy-ethoxy)-quinazolin-4-ylamino]-phenyl}-[1,2,3]triazol-1-yl)-5-methyl-phenol]
other
  melting point: 100 to 103 °C
wild-type EGFR; concentration 0.0001 nM (reference for normalisation), one value per replicate column
  inhibition at 100 fM: 0%
wild-type EGFR; [1]
  inhibition at 30 pM: 5.9%
wild-type EGFR; [2]
  Inhibition: 7.547
wild-type EGFR; [3]
  inhibition at 0.0003 µM: 9.63%
wild-type EGFR; [4]
  Inhibition: 10.2916
wild-type EGFR; [5]
  inhibition at 0.003 µM: 16.9%
wild-type EGFR; [6]
  Inhibition: 12.693
wild-type EGFR; [7]
  inhibition at 0.03 µM: 21.1%
wild-type EGFR; [8]
  Inhibition: 13.2075
wild-type EGFR; [9]
  inhibition at 0.3 µM: 25.3%
wild-type EGFR; [10]
  Inhibition: 17.1527
wild-type EGFR; [11]
  inhibition at 3 µM: 26.1%
wild-type EGFR; [12]
  Inhibition: 22.2985
wild-type EGFR; [13]
  inhibition at 30 µM: 68.9%
wild-type EGFR; [14]
  Inhibition: 69.1252
wild-type EGFR; concentration 0.0001 nM
  A450: 0.879 and 0.798
wild-type EGFR; concentration 0.03 nM
  A450: 0.841 and 0.754
wild-type EGFR; concentration 0.3 nM
  A450: 0.817 and 0.738
wild-type EGFR; concentration 3 nM
  A450: 0.77 and 0.724
wild-type EGFR; concentration 30 nM
  A450: 0.743 and 0.721
wild-type EGFR; concentration 300 nM
  A450: 0.716 and 0.698
wild-type EGFR; concentration 3000 nM
  A450: 0.711 and 0.668
wild-type EGFR; concentration 30000 nM
  A450: 0.435 and 0.395
wild-type EGFR; read-out: IC50 (μM) EGFR
  IC50: 12.4 µM
H460 cells; 1uM, given as fraction, Repeat 1-3
  Inhibitory efficacy: 0.2332 and 0.2742
H460 cells; [15]
  Inhibitory efficacy: 0.4443 and 0.3282
H460 cells; [16]
  Inhibitory efficacy: 0.5163 and 0.5814
H460 cells; [17]
  Inhibitory efficacy: 0.5774 and 0.6654
H460 cells; [18]
  Inhibitory efficacy: 0.7445 and 0.6414
H460 cells; Homo sapiens
  IC50: 4.3 ± 0.62 µM
H460 cells; Homo sapiens, NCI-H460, read-out: Inhibitory efficacy, H460 cells, 1uM, given as fraction, Repeat 1-3
  inhibition at 1 µM: 17.1%
H460 cells; [19]
  inhibition at 2 µM: 27.5%
H460 cells; [20]
  inhibition at 4 µM: 55.5%
H460 cells; [21]
  inhibition at 8 µM: 55%
H460 cells; [22]
  inhibition at 16 µM: 72.3%
A549 cells; 1uM
  Inhibitory efficacy: 0.3234 and 0.3188
  inhibition at 1 µM: 24.6%
A549 cells; 2uM
  Inhibitory efficacy: 0.4627 and 0.499
  inhibition at 2 µM: 37.2%
A549 cells; 4uM
  Inhibitory efficacy: 0.5875 and 0.5347
  inhibition at 4 µM: 66.7%
A549 cells; 8uM
  Inhibitory efficacy: 0.7578 and 0.7459
  inhibition at 8 µM: 73.2%
A549 cells; 16uM
  Inhibitory efficacy: 0.8733 and 0.8713
  inhibition at 16 µM: 88.9%
A549 cells
  IC50: 2.53 ± 0.2 µM
PC-9 cells; Homo sapiens
  IC50: 15.2 ± 0.75 µM
PC-9 cells; Homo sapiens, PC-9, read-out: Inhibitory efficacy, PC-9, 8uM, single repeats (Repeat 1-3), given as fraction
  inhibition at 8 µM: 25.2%
PC-9 cells; Homo sapiens, PC-9, read-out: Inhibitory efficacy, PC-9, 16uM, single repeats (Repeat 1-3), given as fraction
  inhibition at 16 µM: 48.5%
PC-9 cells; PC-9, 8uM, 8 µM
  Inhibitory efficacy: 0.3051 and 0.2654
PC-9 cells; PC-9, 16uM, 16 µM
  Inhibitory efficacy: 0.5238 and 0.4787
H1975 cells; 1uM
  Inhibitory efficacy: 0.2067 and 0.1552
  inhibition at 1 µM: 16.5%
H1975 cells; 2uM
  Inhibitory efficacy: 0.2381 and 0.2095
  inhibition at 2 µM: 26.2%
H1975 cells; 4uM
  Inhibitory efficacy: 0.3038 and 0.341
  inhibition at 4 µM: 33.4%
H1975 cells; 8uM
  Inhibitory efficacy: 0.4524 and 0.4681
  inhibition at 8 µM: 46.7%
H1975 cells; 16uM
  Inhibitory efficacy: 0.6095 and 0.6024
  inhibition at 16 µM: 55.4%
H1975 cells
  IC50: 10 ± 0.69 µM
